Source: article PMC10071493 (ACS chemical neuroscience, 2021)

Target: MC-I from the bovine heart (mitochondrial complex I) (Bos taurus, UniProt P25708)
Experiment: microscale thermophoresis, label-free
Assay type: binding

Chain of MC-I from the bovine heart (mitochondrial complex I) (P25708 21-464, one chain of several): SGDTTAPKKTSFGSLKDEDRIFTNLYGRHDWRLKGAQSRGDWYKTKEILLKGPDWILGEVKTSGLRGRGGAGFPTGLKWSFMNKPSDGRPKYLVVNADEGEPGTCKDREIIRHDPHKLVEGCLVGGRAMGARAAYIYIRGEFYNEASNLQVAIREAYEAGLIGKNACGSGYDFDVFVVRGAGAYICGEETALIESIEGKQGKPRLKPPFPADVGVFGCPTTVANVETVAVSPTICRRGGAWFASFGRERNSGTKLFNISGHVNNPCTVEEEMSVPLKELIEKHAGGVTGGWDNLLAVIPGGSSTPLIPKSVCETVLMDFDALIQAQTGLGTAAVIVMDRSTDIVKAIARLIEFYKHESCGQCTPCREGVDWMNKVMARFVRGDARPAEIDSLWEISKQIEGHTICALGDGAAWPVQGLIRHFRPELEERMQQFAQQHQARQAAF

COc1ccc2[nH]cc(CCNC(=O)CC(=O)CCc3ccc(F)cc3)c2c1 [compound 2, 5-(4-Fluorophenyl)-N-(2-(5-methoxy-1H-indol-3-yl)ethyl)-3-oxo-pentanamide]
Kd: ~0.5 µM
